# In the supplement of paper PMC10307832:
# How the values were obtained:
# Assay in all cases: relative viability (nuclei count vs DMSO), 5 days (fraction); higher = more cells survive
# [1] = system: A549
# In short: (§1)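 Relative viability is defined as nuclei in treated wells over nuclei in vehicle wells. Duplicate plates were run and medians reported. Lung cancer cell lines in 1536-well plates were dosed by pin tool one day after seeding, with one drug or with a fixed anchor-drug dose plus five library-drug doses (not always all listed) in √10 steps, and nuclei were counted after 5 days.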
# [2] = system: ABC-1
# In short: as §1
# [3] = system: EMC-BAC-2
# In short: as §1
# [4] = system: NCI-H1648
# In short: as §1
# [5] = system: NCI-H2009
# In short: as §1
# [6] = system: IA-LM
# In short: as §1
# [7] = system: NCI-H2228
# In short: as §1
# [8] = system: Calu-6
# In short: as §1
# [9] = system: EBC-1
# In short: as §1
# [10] = system: NCI-H1299
# In short: as §1
# [11] = system: NCI-H1703
# In short: as §1
structure (smiles),measurement,setting,value
Cc1cn(-c2cc(NC(=O)c3ccc(C)c(Nc4nccc(-c5cccnc5)n4)c3)cc(C(F)(F)F)c2)cn1 [Nilotinib] + Nc1ncn([C@H]2C[C@H](O)[C@@H](CO)O2)c(=O)n1 [Decitabine] (partner 2 µM),relative viability,[1]; first compound 0.001 µM,0.199
same,relative viability,[1]; first compound 0.01 µM,0.386
same,relative viability,[1]; first compound 0.03162 µM,0.198
same,relative viability,[1]; first compound 0.1 µM,0.116
same,relative viability,[2]; first compound 0.001 µM,0.987
same,relative viability,[2]; first compound 0.003162 µM,0.946
same,relative viability,[2]; first compound 0.01 µM,1.05
same,relative viability,[2]; first compound 0.03162 µM,0.978
same,relative viability,[2]; first compound 0.1 µM,0.96
same,relative viability,[3]; first compound 0.001 µM,0.974
same,relative viability,[3]; first compound 0.003162 µM,0.996
same,relative viability,[3]; first compound 0.01 µM,1.02
same,relative viability,[3]; first compound 0.03162 µM,0.94
same,relative viability,[3]; first compound 0.1 µM,1
same,relative viability,[4]; first compound 0.001 µM,0.588
same,relative viability,[4]; first compound 0.003162 µM,0.496
same,relative viability,[4]; first compound 0.01 µM,0.476
same,relative viability,[4]; first compound 0.03162 µM,0.497
same,relative viability,[4]; first compound 0.1 µM,0.469
same,relative viability,[5]; first compound 0.001 µM,0.372
same,relative viability,[5]; first compound 0.003162 µM,0.393
same,relative viability,[5]; first compound 0.01 µM,0.412
same,relative viability,[5]; first compound 0.03162 µM,0.406
same,relative viability,[5]; first compound 0.1 µM,0.421
Cc1cn(-c2cc(NC(=O)c3ccc(C)c(Nc4nccc(-c5cccnc5)n4)c3)cc(C(F)(F)F)c2)cn1 [Nilotinib] + O=C(CCCCCCC(=O)Nc1ccccc1)NO [Vorinostat] (partner 1 µM),relative viability,[2]; first compound 0.001 µM,1.07
same,relative viability,[2]; first compound 0.003162 µM,1.03
same,relative viability,[2]; first compound 0.01 µM,1.11
same,relative viability,[2]; first compound 0.03162 µM,1.1
same,relative viability,[2]; first compound 0.1 µM,0.754
same,relative viability,[3]; first compound 0.001 µM,0.369
same,relative viability,[3]; first compound 0.003162 µM,0.339
same,relative viability,[3]; first compound 0.01 µM,0.429
same,relative viability,[3]; first compound 0.03162 µM,0.319
same,relative viability,[3]; first compound 0.1 µM,0.33
same,relative viability,[6]; first compound 0.001 µM,0.526
same,relative viability,[6]; first compound 0.01 µM,0.987
same,relative viability,[6]; first compound 0.03162 µM,0.352
same,relative viability,[6]; first compound 0.1 µM,0.841
same,relative viability,[4]; first compound 0.001 µM,0.394
same,relative viability,[4]; first compound 0.003162 µM,0.367
same,relative viability,[4]; first compound 0.01 µM,0.372
same,relative viability,[4]; first compound 0.03162 µM,0.172
same,relative viability,[5]; first compound 0.001 µM,0.607
same,relative viability,[5]; first compound 0.003162 µM,0.755
same,relative viability,[5]; first compound 0.01 µM,0.743
same,relative viability,[5]; first compound 0.03162 µM,0.579
same,relative viability,[5]; first compound 0.1 µM,0.46
same,relative viability,[7]; first compound 0.001 µM,0.659
same,relative viability,[7]; first compound 0.003162 µM,0.616
same,relative viability,[7]; first compound 0.01 µM,0.594
same,relative viability,[7]; first compound 0.03162 µM,0.501
same,relative viability,[7]; first compound 0.1 µM,0.588
Cc1cn(-c2cc(NC(=O)c3ccc(C)c(Nc4nccc(-c5cccnc5)n4)c3)cc(C(F)(F)F)c2)cn1 [Nilotinib] + O=C(c1cc(Cc2n[nH]c(=O)c3ccccc23)ccc1F)N1CCN(C(=O)C2CC2)CC1 [Olaparib] (partner 8 µM),relative viability,[1]; first compound 0.001 µM,0.249
same,relative viability,[1]; first compound 0.003162 µM,0.377
same,relative viability,[1]; first compound 0.01 µM,0.334
same,relative viability,[1]; first compound 0.03162 µM,0.241
same,relative viability,[1]; first compound 0.1 µM,0.117
same,relative viability,[2]; first compound 0.001 µM,0.671
same,relative viability,[2]; first compound 0.003162 µM,0.873
same,relative viability,[2]; first compound 0.01 µM,0.778
same,relative viability,[2]; first compound 0.03162 µM,0.828
same,relative viability,[2]; first compound 0.1 µM,0.673
same,relative viability,[8]; first compound 0.001 µM,0.525
same,relative viability,[8]; first compound 0.003162 µM,0.693
same,relative viability,[8]; first compound 0.01 µM,0.583
same,relative viability,[8]; first compound 0.03162 µM,0.409
same,relative viability,[8]; first compound 0.1 µM,0.494
same,relative viability,[9]; first compound 0.001 µM,0.67
same,relative viability,[9]; first compound 0.003162 µM,0.804
same,relative viability,[9]; first compound 0.01 µM,0.755
same,relative viability,[9]; first compound 0.03162 µM,0.661
same,relative viability,[9]; first compound 0.1 µM,0.631
same,relative viability,[3]; first compound 0.001 µM,0.43
same,relative viability,[3]; first compound 0.003162 µM,0.448
same,relative viability,[3]; first compound 0.01 µM,0.49
same,relative viability,[3]; first compound 0.03162 µM,0.497
same,relative viability,[3]; first compound 0.1 µM,0.521
same,relative viability,[6]; first compound 0.001 µM,0.659
same,relative viability,[6]; first compound 0.003162 µM,0.864
same,relative viability,[6]; first compound 0.01 µM,0.758
same,relative viability,[6]; first compound 0.03162 µM,0.664
same,relative viability,[6]; first compound 0.1 µM,0.777
same,relative viability,[10]; first compound 0.001 µM,0.886
same,relative viability,[10]; first compound 0.003162 µM,1.01
same,relative viability,[10]; first compound 0.01 µM,0.985
same,relative viability,[10]; first compound 0.03162 µM,0.948
same,relative viability,[10]; first compound 0.1 µM,0.664
same,relative viability,[4]; first compound 0.001 µM,0.577
same,relative viability,[4]; first compound 0.003162 µM,0.909
same,relative viability,[4]; first compound 0.01 µM,0.903
same,relative viability,[4]; first compound 0.03162 µM,0.621
same,relative viability,[4]; first compound 0.1 µM,0.893
same,relative viability,[11]; first compound 0.001 µM,0.302
same,relative viability,[11]; first compound 0.003162 µM,0.201
same,relative viability,[11]; first compound 0.01 µM,0.234
same,relative viability,[11]; first compound 0.03162 µM,0.174
same,relative viability,[11]; first compound 0.1 µM,0.212
same,relative viability,[5]; first compound 0.001 µM,0.588
same,relative viability,[5]; first compound 0.003162 µM,0.667
same,relative viability,[5]; first compound 0.01 µM,0.621
same,relative viability,[5]; first compound 0.03162 µM,0.599
same,relative viability,[5]; first compound 0.1 µM,0.9
same,relative viability,[7]; first compound 0.001 µM,0.459
same,relative viability,[7]; first compound 0.003162 µM,0.584
same,relative viability,[7]; first compound 0.01 µM,0.76
same,relative viability,[7]; first compound 0.03162 µM,0.384
same,relative viability,[7]; first compound 0.1 µM,0.835
